pIC50: −log10 of the molar value.
Each molecule was assayed against human αvβ3 receptor (Homo sapiens, UniProt P05106+P06756) (assay: Kistrin/Vitronectin Receptor (αvβ3) ELISA Test). Details: kistrin-coated plates, 3 hours at ambient temperature, OD 450 nm, read-out: K/VnR IC50.
Format: binding
Experimental: Kistrin/Vitronectin Receptor (αvβ3) ELISA Test
96-well MaxiSorp plates are coated overnight at […] with 100 μl of Kistrin at 1 μg/ml (dilution in coating buffer: 0.05 M (carbonate)/NaOH pH 9.6. The next day, the wells are emptied and the ligands (kistrin) are then fixed (fixation buffers: PBS containing 0.5% BSA (pH=7.4)) for 1 hour at ambient temperature under gentle agitation of 125 rpm. The wells are washed six times (washing buffer: PBS containing 0.05% Tween 20 (pH 7.7) then the following is added per well and in this order:
40 μl of incubation buffer
10 μl of the dilution of the product to be tested (the products are diluted in a 50:50 DMSO/water mixture)
50 μl of human αvβ3 receptor (cf Pytel et al. Methods Enzymol. (1987) 144 (Dilution in incubation buffer, adapted according to the batch of receptor and according to the ligand). The ligand, the αvβ3 receptor and the products to be studied are incubated for 3 hours at ambient temperature with gentle agitation of 125 rpm.
The wells are again washed six times, then incubated for 2 hours at ambient temperature with gentle agitation of 125 rpm, in the presence of 100 μl of anti-receptor antibody coupled to a peroxidase (The 4B12-HRP antibody is diluted in incubation buffer (50 mM TRIS pH 7.4; 0.5% BSA; 0.05% Tween 20; 1 mM MnCl2; 50 μM CaCl2; 50 μM MgCl2; 100 mM NaCl). The dilution is to be adapted according to the batch of receptor.
The wells are then washed six times before measurement of the ligand-receptor bond is carried out using a peroxidase developer kit (TBM Microwell Peroxidase Substrate System Kirkegaard; Ref cat 50-76-00).
This kit contains a flask A of substrate (3,3′,5,5′-tetramethylebenzidine at 0.4 g/l) and a flask B (H2O2 to 0.02% in Citrate/Citric acid). Extemporaneously, one volume of A is mixed with one volume of B, then the reaction mixture is distributed at a rate of 100 μl/wells.
The enzymatic reaction develops between 6 to 10 minutes for Kistrin/αvβ3 then its development is stopped by the addition of 100 μl of 1 M phosphoric acid. The optical density is determined at 450 nm.
Expression of the Results
The following curve is plotted: the bond percentage as a function of the logarithm of each concentration of the tested product.
For each product IC50 is determined according to the following formula:
B0=Maximum bond in the absence of any product
Bmin=Minimum bond in the presence of the highest

Sequence of human αvβ3 receptor (P06756 31-889 limits assumed): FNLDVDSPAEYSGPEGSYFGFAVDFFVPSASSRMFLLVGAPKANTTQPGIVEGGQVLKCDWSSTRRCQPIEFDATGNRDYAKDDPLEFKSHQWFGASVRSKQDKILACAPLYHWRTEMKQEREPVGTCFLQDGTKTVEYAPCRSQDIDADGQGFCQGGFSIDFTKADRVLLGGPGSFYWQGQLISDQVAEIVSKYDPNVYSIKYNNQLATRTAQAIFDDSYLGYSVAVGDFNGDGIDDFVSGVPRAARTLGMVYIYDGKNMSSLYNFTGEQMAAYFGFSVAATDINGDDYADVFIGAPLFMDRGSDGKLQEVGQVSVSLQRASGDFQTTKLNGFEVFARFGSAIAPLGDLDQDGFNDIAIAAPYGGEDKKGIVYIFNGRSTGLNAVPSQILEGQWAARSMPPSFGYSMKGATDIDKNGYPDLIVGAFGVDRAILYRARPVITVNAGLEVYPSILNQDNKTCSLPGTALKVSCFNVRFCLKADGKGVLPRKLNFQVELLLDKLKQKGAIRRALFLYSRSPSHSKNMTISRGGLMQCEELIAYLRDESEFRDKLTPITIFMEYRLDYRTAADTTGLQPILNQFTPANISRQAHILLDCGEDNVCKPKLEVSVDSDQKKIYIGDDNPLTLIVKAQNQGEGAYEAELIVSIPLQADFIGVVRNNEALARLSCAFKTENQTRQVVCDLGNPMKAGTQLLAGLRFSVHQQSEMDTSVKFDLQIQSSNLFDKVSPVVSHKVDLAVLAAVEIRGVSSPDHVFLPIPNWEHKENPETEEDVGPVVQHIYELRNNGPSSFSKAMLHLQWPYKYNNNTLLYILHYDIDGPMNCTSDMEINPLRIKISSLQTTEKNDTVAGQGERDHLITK
Sequence of human αvβ3 receptor (P06756 891-1048 partner limits assumed): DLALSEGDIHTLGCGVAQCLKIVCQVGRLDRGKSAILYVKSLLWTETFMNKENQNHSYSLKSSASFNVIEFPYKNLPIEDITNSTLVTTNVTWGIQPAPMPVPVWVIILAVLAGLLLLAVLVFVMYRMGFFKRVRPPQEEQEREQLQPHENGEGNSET
Sequence of human αvβ3 receptor (P05106 27-788): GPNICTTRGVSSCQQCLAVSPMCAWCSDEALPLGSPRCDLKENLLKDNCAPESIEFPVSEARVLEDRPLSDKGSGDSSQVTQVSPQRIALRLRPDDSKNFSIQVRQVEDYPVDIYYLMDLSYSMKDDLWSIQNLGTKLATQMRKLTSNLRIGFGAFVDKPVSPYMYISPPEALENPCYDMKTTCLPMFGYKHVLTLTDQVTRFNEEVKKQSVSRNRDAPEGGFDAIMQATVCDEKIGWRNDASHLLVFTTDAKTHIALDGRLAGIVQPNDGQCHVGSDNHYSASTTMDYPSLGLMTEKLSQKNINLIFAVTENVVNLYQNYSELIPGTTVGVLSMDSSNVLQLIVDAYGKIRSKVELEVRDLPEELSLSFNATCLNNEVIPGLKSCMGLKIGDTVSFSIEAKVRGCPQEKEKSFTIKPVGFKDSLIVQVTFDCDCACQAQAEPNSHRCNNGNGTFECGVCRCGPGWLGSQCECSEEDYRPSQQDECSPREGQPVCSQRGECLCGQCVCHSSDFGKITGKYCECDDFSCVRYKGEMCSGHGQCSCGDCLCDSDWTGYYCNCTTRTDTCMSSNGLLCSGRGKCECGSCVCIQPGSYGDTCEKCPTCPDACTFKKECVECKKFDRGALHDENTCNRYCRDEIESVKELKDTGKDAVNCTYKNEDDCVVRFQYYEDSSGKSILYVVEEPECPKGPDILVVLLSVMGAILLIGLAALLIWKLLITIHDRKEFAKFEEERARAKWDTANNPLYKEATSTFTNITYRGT

pIC50	SMILES
7.51	N=C(N)NC(=O)CCc1ccc(OCCC(NC(=O)OCc2ccccc2)C(=O)O)cc1 (stereo not drawn) [Example 1, O—[4-[3-[(aminoiminomethyl)amino]-3-oxopropyl]phenyl]-N-[(phenylmethoxy)carbonyl]-homoserine]
8.14	O=C(CCc1ccc(OCC[C@H](NC(=O)OCc2ccccc2)C(=O)O)cc1)NC1=NCCCN1 [Example 2, O—[4-[3-oxo-3-[(1,4,5,6-tetrahydro-2-pyrimidinyl)amino]-propyl]phenyl]-N-[(phenylmethoxy)carbonyl]-homoserine]
6.39	CCOC(=O)C(CCOc1ccc(CCC(=O)NC2=NCCCN2)cc1)NC(=O)OCc1ccccc1 (stereo not drawn) [Example 3, Ethyl O—[4-[3-oxo-3-[(1.4,5,6-tetrahydro-2-pyrimidinyl)amino]-propyl]phenyl]-N [(phenylmethoxy)carbonyl]-homoserinate]
5.30	CC(C)OC(=O)C(CCOc1ccc(CCC(=O)NC2=NCCCN2)cc1)NC(=O)OCc1ccccc1 (stereo not drawn) [Example 4, (1-Methyl)ethyl O—[4-[3-oxo-3-[(1.4,5,6-tetrahydro-2-pyrimidinyl)amino]-propyl]phenyl]-N-[(phenylmethoxy)carbonyl]-homoserinate]
8.48	Cc1cc(C)c(S(=O)(=O)NC(CCOc2ccc(CCC(=O)NC3=NCCCN3)cc2)C(=O)O)c(C)c1 (stereo not drawn) [Example 6, O—[4-[3-oxo-3-[(1.4,5,6-tetrahydro-2-pyrimidinyl)amino]-propyl)phenyl]-N-[(2.4,6-trimethylphenyl)sulphonyl]-homoserine]
8.60	O=C(CCc1ccc(OCCC(NS(=O)(=O)c2cccc3ccccc23)C(=O)O)cc1)NC1=NCCCN1 (stereo not drawn) [Example 7, O—[4-[3-oxo-3-[(1.4,5,6-tetrahydro-2-pyrimidinyl)amino]-propyl]phenyl]-N-[(1-naphthalenyl)sulphonyl]-homoserine]
7.89	O=C(CCc1cccc(OCCC(NC(=O)OCc2ccccc2)C(=O)O)c1)NC1=NCCCN1 (stereo not drawn) [Example 8, O—[3-[3-oxo-3-[(1,4,5,6-tetrahydro-2-pyrimidinyl)amino]-propyl]phenyl]-N-[(phenylmethoxy)carbonyl]-homoserine;]
6.96	O=C(CCc1cccc(OCCCC(NC(=O)OCc2ccccc2)C(=O)O)c1)NC1=NCCCN1 (stereo not drawn) [Example 9, 5-[3-[3-oxo-3-[(1.4,5,6-tetrahydro-2-pyrimidinyl)amino]-propyl]phenoxy]-N-[(phenylmethoxy)carbonyl]-norvaline]

SMILES	pIC50
O=C(CCc1ccc(OCC[C@H](NC(=O)OCC23CC4CC(CC(C4)C2)C3)C(=O)O)cc1)NC1=NCCCN1 [Example 5, O—[4-[3-oxo-3-[(1.4,5,6-tetrahydro-2-pyrimidinyl)amino]-propyl]phenyl]-N-[[(1-tricyclo[3.3.1.1^3,7]decyl)-methoxy]-carbonyl]-homoserine]	7.92

— patent publication US6602878B1, “Acylquanidine derivatives, method for preparing same, application as medicines and pharmaceutical compositions containing them” (Aventis Pharma S.A., priority 1998, dated 2003)
